The text below walks through data of paper PMC8348686, “The Pharmacological Profile of Second Generation Pyrovalerone Cathinones and Related Cathinone Derivative” (International Journal of Molecular Sciences, 2021).

The target in one experiment is T1, h5-HT1A receptor (Homo sapiens, UniProt P08908).
T1 construct: expressed in transfected cells; host or cells: HEK293 cell preparations
T1 sequence (P08908 1-422): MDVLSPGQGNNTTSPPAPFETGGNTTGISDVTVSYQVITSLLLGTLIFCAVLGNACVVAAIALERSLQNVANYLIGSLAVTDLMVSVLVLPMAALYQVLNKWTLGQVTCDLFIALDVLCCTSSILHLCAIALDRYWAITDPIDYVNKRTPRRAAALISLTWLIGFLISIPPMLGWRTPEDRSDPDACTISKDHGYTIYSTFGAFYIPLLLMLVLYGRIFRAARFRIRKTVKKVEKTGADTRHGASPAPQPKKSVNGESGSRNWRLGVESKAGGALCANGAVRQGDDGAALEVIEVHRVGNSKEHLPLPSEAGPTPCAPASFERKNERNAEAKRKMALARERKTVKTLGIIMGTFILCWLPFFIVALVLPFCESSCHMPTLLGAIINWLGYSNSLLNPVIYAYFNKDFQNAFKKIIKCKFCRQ
Kind of experiment: Radioligand binding, [3H]-8-OH-DPAT. The procedure:
The radioligand binding assays for the human 5-HT1A, 5-HT2A, and 5-HT2C receptors were examined as previously described by. In summary, the human embryonic kidney 293 (HEK293) cell preparations were stably transfected with the human 5-HT1A, 5-HT2A or 5-HT2C receptors and then incubated with their respective radiolabelled ligands at a concentration equal to the dissociation constant, Kd. The following radioligands were used for the 5-HT1A, 5-HT2A, and 5-HT2C receptors, respectively; 0.90 nM [^3H]8-hydroxy-2-(dipropylamino) tetralin (8-OH-DPAT), 0.40 nM [^3H]ketanserin, and 1.4 nM [^3H]mesulgerine. The radioligand displacement for each examined drug was determined. Specific binding of the radioligand to the target was calculated by subtracting the nonspecific binding (in the presence of the receptor’s competitor in excess) from the total observed binding. The following radioligand competitors were used for the 5-HT1A, 5-HT2A, and 5-HT2C receptors, respectively; 10 μM pindolol (5-HT1A receptor), 10 μM spiperone (5-HT2A receptor), and 10 μM mianserin (5-HT2C receptor).

In another experiment the target is h5-HT2A receptor (Homo sapiens, UniProt P28223). Briefly: Activation potency, FLIPR calcium assay in NIH-3T3 cells. It counts as cell-based. More on the design: expressed in transfected cells. As to the method:
Mouse embryonic fibroblasts (NIH-3T3) were transfected with the human 5-HT2A receptors, seed into 96-well plates coated with poly-D-lysine at a concentration of 70,000 cell per 0.1 mL and then incubated for 1 h at 37 °C in HEPES-Hank’s Balanced Salt Solution (HBSS) buffer (Gibco). Next, the plates were exposed to 100 μL/well of dye solution for 1 h at 37 °C inside the FLIPR (fluorescence imagining plate reader [FLIPR] calcium 5 assay kit; Molecular Devices, Sunnyvale, CA, USA). Then, the plates were exposed to the 25 μL/well of test drugs dissolved in HEPES–HBSS buffer and 250 mM probencid during online mode. The corresponding concentration vs. response curves were fitted using nonlinear regression and the EC50 values were calculated. The efficacy (maximal activity) was calculated relative to 5-HT activity, which was defined as 100%.

The target of experiment [1] is T2, human serotonin (hSERT) uptake transporter (Homo sapiens, UniProt P31645).
T2 construct: expressed in transfected cells; host or cells: HEK293
Briefly: Monoamine uptake inhibition, serotonin uptake in transfected HEK293 cells. Format: cell-based. As to the method: (§1) The monoamine uptake transporter inhibition was examined in accordance with previously described methods by for each substance of interest.
(§2) Human embryonic kidney 293 (HEK293) cells (Invitrogen, Zug, Switzerland) stably transfected with the human norepinephrine (hNET), dopamine (hDAT), or serotonin (hSERT) uptake transporters were briefly cultured in Dulbecco’s modified Eagle’s medium (DMEM; Gibco, Life Technologies, Zug, Switzerland) containing 10% fetal bovine serum and 250 μg/mL geneticin (Gibco, Life Technologies, Zug, Switzerland). Next, the cells were detached at a confluency of 70−90% and resuspended in Krebs–Ringer Bicarbonate Buffer (Sigma-Aldrich, Buchs, Switzerland) at a concentration of 3 × 10^6 cells per ml. The uptake buffer was additionally supplemented with 0.2 mg/mL of ascorbic acid (Sigma–Aldrich, Buchs, Switzerland) for the [^3H]-DA uptake experiments.
(§3) In summary, using round bottom 96-well plates, 100 μL of cell suspension was incubated in 25 μL of buffer containing test substances, vehicle control (0.7% dimethyl sulfoxide, DMSO), or 10 μM of the respective monoamine uptake inhibitor, mainly fluoxetine (SERT), nisoxetine (NET), or mazindol (DAT) for 10 min at room temperature while on a rotary shaker at 450 rpm (Thermomixer Comfort, Eppendorf, Hamburg, Germany). Thereafter, the monoamine uptake transporter was initiated by the addition of 50 μL of each respective radiolabelled neurotransmitter ([^3H]-5-HT, [^3H]-DA or [^3H]-NE) dissolved in the uptake buffer to a final concentration of 5 nM for an additional 10 min. Then, 100 μL of cell suspension mixture was transferred to microcentrifuge tubes containing 50 μL of 3 M potassium hydroxide (KOH, Sigma–Aldrich, Buchs, Switzerland) and 200 μL silicon oil (1:1 mixture of silicon oil type AR20 and AR200; Sigma–Aldrich, Buchs, Switzerland). Immediately after, the tubes were centrifugated (3 min, 13200 rpm) to terminate the uptake reaction by allowing the cells to move through the silicon oil into the KOH, which then lysed the cells. Quickly after, the tubes were immediately frozen with liquid nitrogen. Afterwards, the frozen cell pellet was cut off into 6 mL scintillation vials (Perkin–Elmer, Schwerzenbach, Switzerland) filled with 500 μL of lysis buffer (5 mM EDTA, 0.05 M TRIS-HCl, 50 mM NaCl and 1% NP-40 in water). Directly after the vials were shaken for 1 h at 700 rpm and then each vial was filled with 3 mL of scintillation fluid (Ultimagold, Perkin–Elmer, Schwerzenbach, Switzerland). The uptake of the monoamines was measured using a liquid scintillation counter (Packard Tri-Carb Liquid Scintillation Counter 1900 TR).
(§4) The data were analysed using Prism software (version 8, GraphPad, San Diego, CA, USA) and was fitted by a nonlinear regression to variable-slope sigmoidal dose-response curve. The IC50 values were extracted in order to determine each drug’s inhibition potency at the various monoamine transporters.

Experiment [2] deals with T3, human norepinephrine (hNET) uptake transporter (Homo sapiens, UniProt P23975).
T3 construct: expressed in transfected cells; host or cells: HEK293
Briefly: Monoamine uptake inhibition, norepinephrine uptake in transfected HEK293 cells. Format: cell-based. The conditions noted are these: for fold higher inhibition potency at the NET: compared to α-PPP. The procedure: as §1, §2, §3, §4

Bounds are passed on as bounds.

T3 sequence (P23975 whole entry): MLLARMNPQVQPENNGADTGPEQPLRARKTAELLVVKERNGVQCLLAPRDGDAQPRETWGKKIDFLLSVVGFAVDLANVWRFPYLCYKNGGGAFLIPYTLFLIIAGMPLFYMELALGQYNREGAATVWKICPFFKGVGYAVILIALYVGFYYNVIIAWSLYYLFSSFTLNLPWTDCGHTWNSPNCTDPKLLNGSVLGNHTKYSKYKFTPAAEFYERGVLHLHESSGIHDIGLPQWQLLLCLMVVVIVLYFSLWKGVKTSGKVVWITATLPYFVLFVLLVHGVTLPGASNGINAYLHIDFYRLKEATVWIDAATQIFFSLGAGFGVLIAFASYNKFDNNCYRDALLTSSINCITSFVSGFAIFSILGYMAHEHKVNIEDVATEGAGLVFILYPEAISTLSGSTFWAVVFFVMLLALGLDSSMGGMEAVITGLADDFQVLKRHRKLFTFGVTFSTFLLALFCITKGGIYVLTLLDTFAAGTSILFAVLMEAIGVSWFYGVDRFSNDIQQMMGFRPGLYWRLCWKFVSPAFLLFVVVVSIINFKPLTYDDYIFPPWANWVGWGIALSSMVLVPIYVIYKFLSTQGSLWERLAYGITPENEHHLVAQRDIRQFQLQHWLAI
T2 sequence (P31645 whole entry): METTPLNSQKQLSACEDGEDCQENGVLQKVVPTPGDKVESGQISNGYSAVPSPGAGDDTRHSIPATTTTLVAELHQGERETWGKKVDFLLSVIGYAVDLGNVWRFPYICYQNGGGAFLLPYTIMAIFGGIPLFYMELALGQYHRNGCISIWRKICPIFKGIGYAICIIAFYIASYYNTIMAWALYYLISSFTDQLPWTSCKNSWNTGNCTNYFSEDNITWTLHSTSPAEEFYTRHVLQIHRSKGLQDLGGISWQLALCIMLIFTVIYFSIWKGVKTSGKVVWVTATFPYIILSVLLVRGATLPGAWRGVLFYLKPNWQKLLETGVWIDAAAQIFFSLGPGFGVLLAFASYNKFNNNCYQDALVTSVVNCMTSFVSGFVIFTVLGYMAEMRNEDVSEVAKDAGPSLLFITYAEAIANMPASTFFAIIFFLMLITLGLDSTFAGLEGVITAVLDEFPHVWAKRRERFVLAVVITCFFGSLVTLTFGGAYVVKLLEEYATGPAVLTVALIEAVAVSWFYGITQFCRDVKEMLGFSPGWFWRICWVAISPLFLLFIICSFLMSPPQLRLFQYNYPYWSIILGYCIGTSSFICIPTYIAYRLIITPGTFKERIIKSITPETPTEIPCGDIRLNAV
Sequence of h5-HT2A receptor (P28223 whole entry): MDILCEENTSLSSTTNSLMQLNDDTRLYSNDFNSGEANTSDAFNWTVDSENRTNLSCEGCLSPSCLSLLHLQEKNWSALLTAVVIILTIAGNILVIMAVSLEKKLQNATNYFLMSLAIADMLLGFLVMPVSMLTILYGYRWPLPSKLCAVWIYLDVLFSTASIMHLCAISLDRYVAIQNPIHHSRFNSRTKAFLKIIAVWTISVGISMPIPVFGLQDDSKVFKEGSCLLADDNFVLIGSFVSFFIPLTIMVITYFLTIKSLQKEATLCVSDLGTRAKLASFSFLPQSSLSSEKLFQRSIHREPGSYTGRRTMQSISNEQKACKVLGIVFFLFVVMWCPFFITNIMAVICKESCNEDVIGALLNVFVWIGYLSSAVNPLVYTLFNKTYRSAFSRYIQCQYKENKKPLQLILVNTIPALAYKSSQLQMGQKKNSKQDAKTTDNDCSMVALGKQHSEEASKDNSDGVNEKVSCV

`Cc1ccc(C(=O)C(C)N2CCCC2)cc1` (stereo not drawn) [4-MePPP, 4-methyl-α-pyrrolidinopropiophenone]: the affinity at h5-HT1A receptor corresponds to a Ki of 12 ± 2.2 µM. The EC50 on h5-HT2A receptor is over 10 µM. Further, the concentration for half-maximal inhibition (IC50) amounted to 55 µM in experiment [1] and 0.64 µM in experiment [2]. Besides, the “fold lower potency at the NET” value in experiment [2] (compared to pyrovalerone and MPHP) was determined as 11 fold.

In the case of `CCC(C(=O)c1ccc(F)cc1)N1CCCC1` (stereo not drawn) [4F-PBP, 4-fluoro-α-pyrrolidinobutiophenone], on h5-HT1A receptor, the affinity, expressed as Ki, was 6 ± 3.4 µM. For the same compound, the EC50 at h5-HT2A receptor was over 20 µM. Moreover, the IC50 was 177 µM in experiment [1] and 0.61 µM in experiment [2].

In the case of `CNC(C)Cc1ccc2c(c1)OCO2` (stereo not shown) [MDMA, 3,4-methylenedioxymethamphetamine, reference compound], the half-inhibitory concentration (IC50) in experiment [1] came out at 1.6 µM; in experiment [2], 0.41 µM.

On to `CCC(C(=O)c1ccc2c(c1)OCO2)N1CCCC1` (stereo not drawn) [MDPBP, 3,4-methylenedioxy-α-pyrrolidinobutiophenone], for which the inhibition constant Ki on h5-HT1A receptor was 9 ± 1.5 µM. On h5-HT2A receptor, the half-maximal effective concentration (EC50) is over 20 µM. For the same compound, the half-inhibitory concentration (IC50) in experiment [1] was found to be 11 µM; in experiment [2], 0.14 µM.

`CCCCC(C(=O)c1ccc2c(c1)OCO2)N1CCCC1` (stereo not drawn) [MDPHP, 3,4-methylenedioxy-α-pyrrolidinohexanophenone] returned a Ki at h5-HT1A receptor of 13 ± 1.9 µM. For the same compound, at h5-HT2A receptor, the EC50 was over 20 µM. For the same compound, the IC50 in experiment [1] was 9 µM; in experiment [2], 0.06 µM.

As to `CC(C(=O)c1ccc2c(c1)OCO2)N1CCCC1` (stereo not drawn) [MDPPP, 3,4-methylenedioxy-α-pyrrolidinopropiophenone], the affinity at h5-HT1A receptor, expressed as Ki, was 1.9 ± 0.8 µM. For the same compound, the EC50 on h5-HT2A receptor was over 20 µM. Further, the IC50 in experiment [1] was 43 µM; in experiment [2], 1.7 µM.

Consider `CCCC(C(=O)c1ccc2c(c1)OCO2)N1CCCC1` (stereo not shown) [MDPV, 3,4-methylenedioxypyrovalerone], for which, at h5-HT1A receptor, affinity was put at a Ki of 7.7 ± 0.6 µM. On h5-HT2A receptor, the EC50 was over 20 µM. For the same compound, the half-inhibitory concentration (IC50) in experiment [1] amounted to 8.4 µM; in experiment [2], 0.05 µM.

On to `COc1ccc(C(=O)C(C)N2CCCC2)cc1` (stereo not drawn) [MOPPP, 4-methoxy-α-pyrrolidinopropiophenone], for which the Ki at h5-HT1A receptor is over 17 µM. For the same compound, the EC50 on h5-HT2A receptor was over 20 µM. Also, the IC50 in experiment [1] is 94 µM; in experiment [2], 8.7 µM. The “NET IC50 value fold higher” value in experiment [2] (than observed for α-PPP) is “about 14 fold”.

Turning to `CCCCC(C(=O)c1ccc(C)cc1)N1CCCC1` (stereo not drawn) [MPHP, 4-methyl-α-pyrrolidinohexanophenone], the inhibition constant Ki on h5-HT1A receptor was found to be 13 ± 1.9 µM. Besides, the EC50 on h5-HT2A receptor is over 20 µM. The 50% inhibitory concentration (IC50) worked out at 11 µM in experiment [1] and 0.07 µM in experiment [2].

For `CCCCC(NCC)C(=O)c1ccccc1` (stereo not shown) [NEH, N-ethylamine-hexanophenone], the inhibition constant Ki on h5-HT1A receptor was over 17 µM. The EC50 at h5-HT2A receptor is over 20 µM. Moreover, the 50% inhibitory concentration (IC50) in experiment [1] turned out to be 47 µM; in experiment [2], 0.17 µM.

With `CCCC(C(=O)c1ccc(C)cc1)N1CCCC1` (stereo not shown) [Pyrovalerone, pyrovalerone], the Ki at h5-HT1A receptor is 13 ± 1.4 µM. The EC50 on h5-HT2A receptor is over 20 µM. The IC50 in experiment [1] worked out at 13 µM; in experiment [2], 0.06 µM.

In turn, `CCCCC(C(=O)c1ccccc1)N1CCCC1` (stereo not drawn) [α-PHP, α-pyrrolidinohexanophenone] came in with a Ki at h5-HT1A receptor of 11 ± 5.3 µM. The EC50 on h5-HT2A receptor was over 20 µM. Moreover, in experiment [1], half-maximal inhibition (IC50) required 245 µM. Moreover, in experiment [2], the IC50 was 0.06 µM and the “fold higher inhibition potency at the NET” value is reported as 11 fold.

On h5-HT1A receptor, `CC(C(=O)c1ccccc1)N1CCCC1` (stereo not drawn) [α-PPP, α-pyrrolidinopropiophenone] showed a Ki of 0.7 ± 0.3 µM. Further, the concentration giving a half-maximal response (EC50) on h5-HT2A receptor is over 20 µM. Also, the concentration for half-maximal inhibition (IC50) in experiment [1] was over 1000 µM; in experiment [2], 0.64 µM.

At h5-HT1A receptor, `CCCC(C(=O)c1ccccc1)N1CCCC1` (stereo not drawn) [α-PVP, α-pyrrolidinopentiophenone] showed a Ki of 6.1 ± 0.7 µM. In addition, the EC50 on h5-HT2A receptor was over 20 µM. Moreover, the values for the 50% inhibitory concentration (IC50) in experiment [1] and in experiment [2] were 279 µM and 0.02 µM, respectively. Also, the “fold higher inhibition potency at the NET” value in experiment [2] was determined as 32 fold.

What is called Ki is the dissociation constant of the complex between target and ligand, obtained from inhibition or displacement. Higher therefore signals a looser hold on the target. Usually EC50 stands for the concentration giving half of the maximal effect. In general, IC50 refers to the concentration that gives 50% inhibition.
